Test results published in patent US20230407304A1, “USE OF MICRORNA INHIBITION TO PREVENT AND TREAT OSTEOARTHRITIS AND OTHER INFLAMMATORY DISEASES” (VIRGINIA COMMONWEALTH UNIVERSITY, priority 2020, published 2023).

Tests used:
chondrocytes = settings: in vitro studies (Scott; Tang et al.); cited from earlier work
[1] = tested on: rat articular chondrocytes (rArCs); test: miR mimic or inhibitor transfection of rArCs with or without TNF-α stimulation; type: cell-based
Method: FIGS. 7A-7F show assessment of miR-122 and miR-451 transfection or inhibition on TNF-α stimulated rat articular chondrocytes. rArCs were transfected at 60% confluence with miR-122, miR-451, miR-122-inhibitor (122-Inh), miR-451 inhibitor (451-Inh), or an empty vehicle (Lipo) for 24 hours followed by 24 hours with or without 10 ng/mL TNF-α stimulation. (FIG. 7A, 7D) Total DNA was measured from the cell monolayer and (FIG. 7B, 7E) MMP-13 and (FIG. 7C, 7F) PGE2 proteins were measured from the conditioned media. Groups not sharing a letter (A, B or C over bar) are statistically significant using an alpha=0.05.
Rat articular chondrocytes (rArCs) were isolated using a previously established protocol (see Scott, supra). Briefly, rArCs were isolated from femoral condyles and tibial plateaus from 100-125 g male Sprague Dawley rats. Cartilage was sterilely sliced from the articular surfaces using a surgical blade and placed in Dulbecco's modification of Eagle's medium with 1 g/L glucose, 50 U/mL penicillin and streptomycin (pen-strep) (DMEM). After removing DMEM, cartilage was incubated with 0.05% trypsin (20 mins, 37° C.), rinsed with DMEM (50 U/mL pen-strep, 20 mins, 37° C.), and then digested with sterile-filtered 0.03% collagenase type II solution (Worthington Biochemical, Lakewood, NJ) in Hank's balanced salt solution (16 hrs, 37° C.). Digestion was quenched with an equal volume of DMEM containing 10% fetal bovine serum (FBS) and 50 U/mL pen-strep, strained through a 40 μm strainer (Greiner Bio-one, North Carolina), spun down at 500×g for 10 mins and plated at a seeding density of 15,000 cells/cm^2. These cells are at passage 0. All experiments used cells at passage 1.
rArCs were plated at a seeding density of 15,000 cells/cm^2 and fed with DMEM supplemented with 10% FBS and 50 U/mL pen-strep. Media were changed 24 hours after plating and then every 48 hours. After treatments described below, conditioned media were collected, centrifuged at 1,000×g for 10 mins to remove cellular debris, aliquoted, and stored at −80° C. until assayed. Cell monolayers were rinsed twice with 1 mL of 1×PBS, lysed in 500 μL of 0.05% Triton X-100, and frozen for later DNA analysis. MMP-13 (ANASpec, Fremont, CA) and PGE2 (R&D Systems) were measured in the conditioned media by a microplate reader at ex/em 490 nm/520 nm, and 450 nm absorbance, respectively, in accordance with the manufacturer's directions. Data were normalized to the DNA content of the cell monolayer. Cell layers were thawed, and mechanically lysed by ultrasonication (40V, 10s/well) (VCX-120; Vibra-cell, Newtown, CT) and DNA was measured using QuantiFluor dsDNE system kit (Promega, Madson, WI) and quantified on a fluorescence plate reader at ex/em 504 nm/531 nm. […]

articular chondrocytes = test: miR-122 / miR-451 transfection of articular chondrocytes in presence and absence of IL-1β; type: cell-based, rat; settings: miR transfection plus IL-1β stimulation
Source text: The following Examples with these microRNAs established their functions in articular chondrocytes in the presence and absence of the inflammatory cytokine IL-1β. Since IL-1β signaling is a major contributor of OA, a well-established model of creating an osteoarthritic phenotype in vitro is to stimulate cell cultures with this cytokine. This study first established that both these microRNAs were elevated in OA in the bilateral ACLT model.
The miR-451 miR (SEQ ID NO:10) was originally chosen as a control miR but it had surprising and very specific functions. […] A series of transfections and inhibition experiments with these microRNAs confirmed that these changes were due to the microRNAs themselves.

[2] = tested on: resting zone and growth zone chondrocytes; test: microRNA transfection of costochondral resting zone and growth zone chondrocytes; settings: preliminary testing

Substance: miR-451: mirVana miRNA mimic rno-miR-451-5p; AAACCGUUACCAUUACUGAGUU (AAACCGUUACCAUUACUGAGUU; listed as RNA, chemistry not given here)
- apoptosis and cell viability in chondrocytes (chondrocytes): does not induce apoptosis or compromise cell viability
- change of total DNA on TNF-α treatment in transfected cells ([1]; 14.5 nM mimic 24 hours, then 10 ng/mL TNF-α 24 hours): did not change total DNA
- total DNA after mimic transfection ([1]; 14.5 nM mimic, 24 hours, vs Lipo control): reduced total DNA compared to all groups
- IL-1β-stimulated MMP-13 (articular chondrocytes): exacerbated production in MMP-13 and PGE2
- IL-1β-stimulated PGE2 (articular chondrocytes): exacerbated production in MMP-13 and PGE2
- growth factor VEGF (articular chondrocytes): decreased the growth factor VEGF
- inflammatory mediators, cytokines, chemokines (IL-1α, IL-2, IL-4, IL-6, GM-CSF, MIP-1A; RANTES for miR-122) (articular chondrocytes): increased the inflammatory mediators, cytokines, chemokines
- proliferation ([2]; transfected costochondral resting zone and growth zone chondrocytes): decrease in total DNA and proliferation
- total DNA ([2]; transfected growth plate chondrocytes): decrease in total DNA and proliferation
